In ChEMBL document CHEMBL3085629, “Highly functionalized 2-oxopiperazine-based peptidomimetics: an approach to PAR1 antagonists” (2013):
Active and inactive are the calls of the source. The calls are words filed in the database; no cut-off is given here.

Columns and labels:
[1] = molecular target: T1, Proteinase-activated receptor 1 (Homo sapiens) (UniProt P25116); test: Antagonist activity at PAR1 in human platelet rich plasma assessed as inhibition of SFLLRN-induced platelet aggregation at 150 uM after 5 mins by aggregometric analysis relative to control
T1 sequence (whole entry): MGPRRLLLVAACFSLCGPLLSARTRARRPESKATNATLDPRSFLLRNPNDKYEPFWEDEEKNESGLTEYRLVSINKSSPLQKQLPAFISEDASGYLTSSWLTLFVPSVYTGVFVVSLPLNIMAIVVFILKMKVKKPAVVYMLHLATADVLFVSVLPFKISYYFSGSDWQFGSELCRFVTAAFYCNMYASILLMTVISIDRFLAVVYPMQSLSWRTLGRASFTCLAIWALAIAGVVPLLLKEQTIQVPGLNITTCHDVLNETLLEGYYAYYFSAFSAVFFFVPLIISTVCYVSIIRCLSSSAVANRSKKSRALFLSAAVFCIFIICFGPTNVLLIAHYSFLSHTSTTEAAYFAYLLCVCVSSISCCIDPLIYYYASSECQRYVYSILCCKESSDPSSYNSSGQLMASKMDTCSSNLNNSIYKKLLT

[2] = system: A549; test: Cytotoxicity against human A549 cells after 48 hrs by sulforhodamine B assay; assay type: functional; conditions: A549, 48 h
[3] = system: MDA-MB-231; test: Cytotoxicity against human MDA-MB-231 cells after 48 hrs by sulforhodamine B assay; assay type: functional; conditions: MDA-MB-231, 48 h
[4] = system: HT-29; test: Cytotoxicity against human HT-29 cells after 48 hrs by sulforhodamine B assay; assay type: functional; conditions: HT-29, 48 h

`Cc1c(C)c(S(=O)(=O)/N=C(\N)NCCC[C@H]2C(=O)N(Cc3ccccc3)C[C@H]([C@H](Cc3ccccc3)NC(=O)OC(C)(C)C)N2CC(=O)OC(C)(C)C)c(C)c2c1OC(C)(C)C2` was tested, and the inhibition [1] was “Active”.
With `CC(C)(C)OC(=O)NCCCC[C@H]1C(=O)N(Cc2ccccc2)C[C@@H]([C@H](Cc2cn(C(=O)OC(C)(C)C)c3ccccc23)NC(=O)OC(C)(C)C)N1Cc1ccccc1` the inhibition [1] was “inactive”, the GI50 [2] was > 10 µM and the GI50 [3] was 1.48 µM. The GI50 [4] was 3.83 µM.
For `Cc1c(C)c(S(=O)(=O)/N=C(/N)NCCC[C@H]2C(=O)NC[C@H]([C@H](Cc3ccccc3)NC(=O)OC(C)(C)C)N2Cc2ccccc2)c(C)c2c1OC(C)(C)C2`, the GI50 [2] was 1.24 µM, the GI50 [3] was 6.83 µM and the GI50 [4] was 5.26 µM.
In the case of `CC(C)(C)OC(=O)NCCCC[C@@H]1N[C@H]([C@H](Cc2cn(C(=O)OC(C)(C)C)c3ccccc23)NC(=O)OC(C)(C)C)CNC1=O`, the inhibition [1] is reported as “inactive”, the GI50 [2] is reported as 9.75 µM and the GI50 [3] is reported as 5.31 µM. The GI50 [4] was 5.43 µM.
In the case of `Cc1c(C)c(S(=O)(=O)/N=C(\N)NCCC[C@H]2C(=O)N(Cc3ccccc3)C[C@H]([C@H](Cc3ccccc3)NC(=O)OC(C)(C)C)N2Cc2ccccc2)c(C)c2c1OC(C)(C)C2`, the inhibition [1] is reported as “Active”.
In the case of `CC(C)(C)OC(=O)NCCCC[C@H]1C(=O)N(Cc2ccccc2)C[C@H]([C@H](Cc2cn(C(=O)OC(C)(C)C)c3ccccc23)NC(=O)OC(C)(C)C)N1Cc1ccccc1`, the inhibition [1] is reported as “inactive”, the GI50 [2] is reported as > 10 µM and the GI50 [3] is reported as 3.33 µM. For the same molecule, the GI50 [4] was > 10 µM.
With `Cc1c(C)c(S(=O)(=O)/N=C(/N)NCCC[C@H]2C(=O)N(Cc3ccccc3)C[C@H](CCc3cn(C(=O)OC(C)(C)C)c4ccccc34)N2Cc2ccccc2)c(C)c2c1OC(C)(C)C2` the inhibition [1] was “Active”.
`CC(C)(C)OC(=O)CN1[C@@H](CCCCNC(=O)OC(C)(C)C)C(=O)NC[C@H]1[C@H](Cc1cn(C(=O)OC(C)(C)C)c2ccccc12)NC(=O)OC(C)(C)C` was tested, and the inhibition [1] was “inactive”, the GI50 [2] was 8.6 µM and the GI50 [3] was 6.72 µM. The GI50 [4] was 5.78 µM.
In the case of `Cc1c(C)c(S(=O)(=O)/N=C(/N)NCCC[C@H]2C(=O)N(Cc3ccccc3)C[C@H]([C@H](Cc3cn(C(=O)OC(C)(C)C)c4ccccc34)NC(=O)OC(C)(C)C)N2Cc2ccccc2)c(C)c2c1OC(C)(C)C2`, the inhibition [1] is reported as “Active”.
For `Cc1c(C)c(S(=O)(=O)/N=C(/N)NCCC[C@H]2C(=O)N(Cc3ccccc3)C[C@@H]([C@H](Cc3cn(C(=O)OC(C)(C)C)c4ccccc34)NC(=O)OC(C)(C)C)N2Cc2ccccc2)c(C)c2c1OC(C)(C)C2`, the inhibition [1] was “Active”.
`COc1cccc2c1C(=O)c1c(O)c3c(c(O)c1C2=O)C[C@@](O)(C(=O)CO)C[C@@H]3O[C@H]1C[C@H](N)[C@H](O)[C@H](C)O1` [DOXORUBICIN] gave a GI50 [2] of 0.07 µM, a GI50 [3] of 0.09 µM and a GI50 [4] of 0.1 µM.
With `Cc1c(C)c(S(=O)(=O)/N=C(/N)NCCC[C@H]2C(=O)NC[C@H]([C@H](Cc3cn(C(=O)OC(C)(C)C)c4ccccc34)NC(=O)OC(C)(C)C)N2Cc2ccccc2)c(C)c2c1OC(C)(C)C2` the GI50 [2] was 4.89 µM, the GI50 [3] was 4.44 µM and the GI50 [4] was 3.78 µM.
For `CC(C)(C)OC(=O)CN1[C@@H]([C@H](Cc2cn(C(=O)OC(C)(C)C)c3ccccc23)NC(=O)OC(C)(C)C)CNC(=O)[C@@H]1CCCCNC(=O)OC(C)(C)C`, the inhibition [1] was “inactive”, the GI50 [2] was 4.57 µM and the GI50 [3] was 2.29 µM. For the same molecule, the GI50 [4] was 3.09 µM.
In the case of `Cc1c(C)c(S(=O)(=O)/N=C(/N)NCCC[C@H]2C(=O)N(Cc3ccccc3)C[C@@H]([C@H](Cc3cn(C(=O)OC(C)(C)C)c4ccccc34)NC(=O)OC(C)(C)C)N2CC(=O)OC(C)(C)C)c(C)c2c1OC(C)(C)C2`, the inhibition [1] is reported as “Active”.
For `Cc1c(C)c(S(=O)(=O)/N=C(\N)NCCC[C@H]2C(=O)N(Cc3ccccc3)C[C@H]([C@H](Cc3c[nH]c4ccccc34)NC(=O)NCc3ccccc3)N2Cc2ccccc2)c(C)c2c1OC(C)(C)C2`, the inhibition [1] was “Active”.
`Cc1c(C)c(S(=O)(=O)/N=C(\N)NCCC[C@H]2C(=O)N(Cc3ccccc3)C[C@@H]([C@H](Cc3ccccc3)NC(=O)NCc3ccccc3)N2Cc2ccccc2)c(C)c2c1OC(C)(C)C2` showed an inhibition [1] of 57%.
In the case of `Cc1c(C)c(S(=O)(=O)/N=C(/N)NCCC[C@H]2C(=O)NC[C@H]([C@H](Cc3cn(C(=O)OC(C)(C)C)c4ccccc34)NC(=O)OC(C)(C)C)N2CC(=O)OC(C)(C)C)c(C)c2c1OC(C)(C)C2`, the GI50 [2] is reported as 3.25 µM, the GI50 [3] is reported as 4.54 µM and the GI50 [4] is reported as 4.98 µM.
With `Cc1c(C)c(S(=O)(=O)/N=C(/N)NCCC[C@H]2C(=O)N(Cc3ccccc3)C[C@@H](CCc3ccccc3)N2Cc2ccccc2)c(C)c2c1OC(C)(C)C2` the inhibition [1] was “Active”.
In the case of `CC(C)(C)OC(=O)NCCCC[C@@H]1N[C@@H]([C@H](Cc2cn(C(=O)OC(C)(C)C)c3ccccc23)NC(=O)OC(C)(C)C)CNC1=O`, the inhibition [1] is reported as “inactive”, the GI50 [2] is reported as > 10 µM and the GI50 [3] is reported as 5.56 µM. It also gave a GI50 [4] of 5.43 µM.
For `CC(C)(C)OC(=O)CN1[C@@H]([C@H](Cc2cn(C(=O)OC(C)(C)C)c3ccccc23)NC(=O)OC(C)(C)C)CN(Cc2ccccc2)C(=O)[C@@H]1CCCCNC(=O)OC(C)(C)C`, the inhibition [1] was “inactive”, the GI50 [2] was > 10 µM and the GI50 [3] was 1.56 µM. It also gave a GI50 [4] of 4.44 µM.
For `CC(C)(C)OC(=O)CN1[C@@H](CCCCNC(=O)OC(C)(C)C)C(=O)N(Cc2ccccc2)C[C@H]1[C@H](Cc1cn(C(=O)OC(C)(C)C)c2ccccc12)NC(=O)OC(C)(C)C`, the inhibition [1] was “inactive”.
With `CC(C)(C)OC(=O)NCCCC[C@H]1C(=O)NC[C@H]([C@H](Cc2cn(C(=O)OC(C)(C)C)c3ccccc23)NC(=O)OC(C)(C)C)N1Cc1ccccc1` the inhibition [1] was “inactive”, the GI50 [2] was 4.86 µM and the GI50 [3] was 2.92 µM. The GI50 [4] was 4.58 µM.
For `Cc1c(C)c(S(=O)(=O)/N=C(\N)NCCC[C@H]2C(=O)N(Cc3ccccc3)C[C@H]([C@H](Cc3ccccc3)NC(=O)NCc3ccccc3)N2Cc2ccccc2)c(C)c2c1OC(C)(C)C2`, the inhibition [1] was “Active”.
In the case of `Cc1c(C)c(S(=O)(=O)/N=C(/N)NCCC[C@H]2C(=O)NC[C@@H]([C@H](Cc3ccccc3)NC(=O)OC(C)(C)C)N2Cc2ccccc2)c(C)c2c1OC(C)(C)C2`, the GI50 [2] is reported as 5.39 µM, the GI50 [3] is reported as 6.04 µM and the GI50 [4] is reported as 3.29 µM.
In the case of `Cc1c(C)c(S(=O)(=O)/N=C(/N)NCCC[C@H]2C(=O)N(Cc3ccccc3)C[C@@H](CCc3cn(C(=O)OC(C)(C)C)c4ccccc34)N2Cc2ccccc2)c(C)c2c1OC(C)(C)C2`, the inhibition [1] is reported as “Active”.
With `Cc1c(C)c(S(=O)(=O)/N=C(\N)NCCC[C@H]2C(=O)N(Cc3ccccc3)C[C@@H]([C@H](Cc3ccccc3)NC(=O)OC(C)(C)C)N2Cc2ccccc2)c(C)c2c1OC(C)(C)C2` the inhibition [1] was “Active”.
In the case of `Cc1c(C)c(S(=O)(=O)/N=C(/N)NCCC[C@H]2C(=O)N(Cc3ccccc3)C[C@H](CCc3ccccc3)N2Cc2ccccc2)c(C)c2c1OC(C)(C)C2`, the inhibition [1] is reported as “Active”.
In the case of `CC(C)(C)OC(=O)NCCCC[C@H]1C(=O)NC[C@@H]([C@H](Cc2cn(C(=O)OC(C)(C)C)c3ccccc23)NC(=O)OC(C)(C)C)N1Cc1ccccc1`, the inhibition [1] is reported as “inactive”, the GI50 [2] is reported as 5.56 µM and the GI50 [3] is reported as 4.58 µM. For the same molecule, the GI50 [4] was 4.45 µM.
`Cc1c(C)c(S(=O)(=O)/N=C(/N)NCCC[C@H]2C(=O)NC[C@@H]([C@H](Cc3cn(C(=O)OC(C)(C)C)c4ccccc34)NC(=O)OC(C)(C)C)N2Cc2ccccc2)c(C)c2c1OC(C)(C)C2` gave a GI50 [2] of 5.55 µM, a GI50 [3] of 4.55 µM and a GI50 [4] of 3.78 µM.
With `Cc1c(C)c(S(=O)(=O)/N=C(\N)NCCC[C@H]2C(=O)N(Cc3ccccc3)C[C@@H]([C@H](Cc3c[nH]c4ccccc34)NC(=O)NCc3ccccc3)N2Cc2ccccc2)c(C)c2c1OC(C)(C)C2` the inhibition [1] was “Active”.
For `Cc1c(C)c(S(=O)(=O)/N=C(/N)NCCC[C@H]2C(=O)N(Cc3ccccc3)C[C@H]([C@H](Cc3cn(C(=O)OC(C)(C)C)c4ccccc34)NC(=O)OC(C)(C)C)N2CC(=O)OC(C)(C)C)c(C)c2c1OC(C)(C)C2`, the inhibition [1] was “Active”.
`Cc1c(C)c(S(=O)(=O)/N=C(/N)NCCC[C@H]2C(=O)NC[C@@H]([C@H](Cc3cn(C(=O)OC(C)(C)C)c4ccccc34)NC(=O)OC(C)(C)C)N2CC(=O)OC(C)(C)C)c(C)c2c1OC(C)(C)C2` showed a GI50 [2] of 7.68 µM, a GI50 [3] of 4.87 µM and a GI50 [4] of 2.92 µM.
`Cc1c(C)c(S(=O)(=O)/N=C(\N)NCCC[C@H]2C(=O)N(Cc3ccccc3)C[C@@H]([C@H](Cc3ccccc3)NC(=O)OC(C)(C)C)N2CC(=O)OC(C)(C)C)c(C)c2c1OC(C)(C)C2` was tested, and the inhibition [1] was “Active”.
